Laboratory results from paper PMC8404221 (European journal of pharmaceutical sciences : official …, 2021).
Values joined by “and” are separate entries in the source; they are usually repeats but may differ in a detail not shown here. Identical values can stand only once. Like-named read-outs stand apart in the source and are kept apart here. Marks after values point to notes of the source that are not given here.

Legend:
DYRK1A [1] = molecular target: T1, DYRK1A (Homo sapiens, UniProt Q13627); assay: biochemical; format: binding; settings: for inhibition at 6.7 µM: read-out: DYRK1A inhibition in pilot HTS
H4 cells [2] = assay: PrestoBlue cell proliferation/viability assay; format: cell-based, human; settings: 72 h; for IC50: Homo sapiens, read-out: H4 (cell proliferation) IC50
U87 cells [3] = assay: PrestoBlue cell proliferation/viability assay; format: cell-based, human; settings: 72 h; for IC50: Homo sapiens, U-87 MG, read-out: U87 (cell proliferation) IC50; for U87 (cell proliferation) % inhibition at highest dose tested: PrestoBlue
H4 cells [4] = assay: High content imaging assay; format: cell-based, human; settings: 72 h, read-out: H4 (nuclear count) IC50
U87 cells [5] = assay: High content imaging assay; format: cell-based, human; settings: 72 h; for IC50 / inhibition at 66 µM: Homo sapiens, U-87 MG; for IC50: read-out: U87 (nuclear count) IC50; for inhibition at 66 µM: read-out: U87 (nuclear count) % inhibition at highest dose tested; for U87 (nuclear count) % inhibition at highest dose tested: Hoechst 33342 high content imaging, highest dose tested (66 μM)
CLK1 [6] = molecular target: T2, CLK1 (Homo sapiens, UniProt P49759); assay: InCELL Hunter / PathHunter in-cell target engagement assay; format: cell-based; settings: for Effect on β-gal activity (CLK1 target engagement): 0.5, 5 and 50 μM
[7] = test system: U87 human glioblastoma cells; assay: U87 glioma tumor xenograft in nude NU/J mice; format: in vivo; settings: for Effect on body weight: up to 21 days; for Tremor activity in treated mice: anecdotal observation, duration of the study
MAO-A = settings: read-out: MAO-A IC50, published, ref Bálint et al., 2017, Clarke and Ramsay, 2011, Herraiz and Brandt, 2014, Herraiz and Chaparro, 2005, Ionescu et al., 2012, Kim et al., 1997, Rahman and Rahmatullah, 2010, Reniers et al., Rommelspacher et al., 1994, Rüben et al., 2015, Santillo et al., Wurzlbauer et al., 2020; cited from earlier work
CK1α1 = CK1α1 (Homo sapiens, UniProt P48729); assay: Kinase selectivity panel; settings: 10 μM, n = 2
PIM1 = PIM1 (Homo sapiens, UniProt P11309); assay: Kinase selectivity panel; settings: 10 μM, n = 2
DYRK1A [8] = molecular target: T1, DYRK1A; assay: biochemical; format: biochemical
[9] = molecular target: T3, Monoamine oxidase-A (MAO-A) (Homo sapiens, UniProt P21397); assay: biochemical; format: biochemical
T3 sequence (P21397 1-527): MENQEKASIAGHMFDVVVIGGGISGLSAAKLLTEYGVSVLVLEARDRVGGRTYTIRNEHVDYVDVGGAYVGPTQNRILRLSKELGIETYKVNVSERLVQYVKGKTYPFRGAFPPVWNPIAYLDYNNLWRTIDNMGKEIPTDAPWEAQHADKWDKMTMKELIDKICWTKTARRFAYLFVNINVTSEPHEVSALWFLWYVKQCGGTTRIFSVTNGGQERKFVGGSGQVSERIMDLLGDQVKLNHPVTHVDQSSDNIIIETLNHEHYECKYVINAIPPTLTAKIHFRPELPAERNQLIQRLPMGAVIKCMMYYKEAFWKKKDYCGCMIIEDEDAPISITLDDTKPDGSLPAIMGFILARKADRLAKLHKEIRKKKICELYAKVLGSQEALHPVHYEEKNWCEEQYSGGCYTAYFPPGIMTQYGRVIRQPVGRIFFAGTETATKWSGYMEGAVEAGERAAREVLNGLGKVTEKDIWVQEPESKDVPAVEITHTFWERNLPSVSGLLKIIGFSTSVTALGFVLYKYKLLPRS

DYRK1A [10] = molecular target: T1, DYRK1A; settings: read-out: DYRK1A IC50, published values, ref Adayev et al., 2011, Bain et al., 2007, Bálint et al., 2017, Bruel et al., 2014, Foucourt et al., Göckler et al., 2009, Grabher et al., 2012, Kim et al., 2016, Kumar et al., 2018, Liu et al., 2017b, PubChem; cited from earlier work
panel of 10 kinases = assay: Kinase selectivity panel; settings: 10 μM
DYRK2 = molecular target: T4, DYRK2 (Homo sapiens, UniProt Q92630); assay: Kinase selectivity panel; settings: 10 μM, n = 2
T4 sequence (Q92630 1-601): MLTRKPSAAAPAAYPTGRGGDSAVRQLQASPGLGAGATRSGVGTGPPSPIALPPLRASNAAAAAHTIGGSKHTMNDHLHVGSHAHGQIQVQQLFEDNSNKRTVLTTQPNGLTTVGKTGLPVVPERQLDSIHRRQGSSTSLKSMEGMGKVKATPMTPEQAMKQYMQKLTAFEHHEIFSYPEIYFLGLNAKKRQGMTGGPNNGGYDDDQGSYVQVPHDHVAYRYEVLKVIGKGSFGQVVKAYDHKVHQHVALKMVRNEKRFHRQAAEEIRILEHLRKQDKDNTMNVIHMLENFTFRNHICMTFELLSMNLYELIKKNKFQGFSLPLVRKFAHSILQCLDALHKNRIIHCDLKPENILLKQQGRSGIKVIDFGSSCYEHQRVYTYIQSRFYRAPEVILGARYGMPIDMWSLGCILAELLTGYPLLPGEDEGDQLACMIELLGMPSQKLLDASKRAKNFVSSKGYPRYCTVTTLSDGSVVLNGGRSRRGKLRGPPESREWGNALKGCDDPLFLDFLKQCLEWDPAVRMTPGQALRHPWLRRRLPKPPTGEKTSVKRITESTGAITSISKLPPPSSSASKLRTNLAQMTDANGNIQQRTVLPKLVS

CLK1 [11] = molecular target: T2, CLK1; assay: Kinase selectivity panel; format: biochemical; settings: 10 μM, n = 2
DYRK1B = DYRK1B (Homo sapiens, UniProt Q9Y463); assay: Kinase selectivity panel; format: biochemical; settings: 10 μM, n = 2
DYRK1A [12] = molecular target: T1, DYRK1A; assay: Kinase selectivity panel; format: biochemical; settings: 10 μM, n = 2
[13] = DYRK1A IC50, TR-FRET, 10-point 2-fold dose response
[14] = using TR-FRET DYRK1A IC50 values

T2 sequence (P49759 whole entry): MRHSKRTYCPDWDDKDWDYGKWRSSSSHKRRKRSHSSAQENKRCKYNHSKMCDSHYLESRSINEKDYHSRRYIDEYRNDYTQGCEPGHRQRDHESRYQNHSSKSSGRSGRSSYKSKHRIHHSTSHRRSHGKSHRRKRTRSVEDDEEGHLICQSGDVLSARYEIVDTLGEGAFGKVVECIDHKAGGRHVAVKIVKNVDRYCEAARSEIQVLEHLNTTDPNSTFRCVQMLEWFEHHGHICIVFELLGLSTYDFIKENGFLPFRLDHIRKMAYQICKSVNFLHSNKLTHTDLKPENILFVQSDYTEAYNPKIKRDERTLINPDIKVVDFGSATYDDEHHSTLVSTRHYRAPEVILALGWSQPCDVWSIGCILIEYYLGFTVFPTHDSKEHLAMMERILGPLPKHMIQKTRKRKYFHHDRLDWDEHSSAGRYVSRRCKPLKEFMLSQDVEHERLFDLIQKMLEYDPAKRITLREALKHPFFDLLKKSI
Sequence of PIM1 (P11309 whole entry): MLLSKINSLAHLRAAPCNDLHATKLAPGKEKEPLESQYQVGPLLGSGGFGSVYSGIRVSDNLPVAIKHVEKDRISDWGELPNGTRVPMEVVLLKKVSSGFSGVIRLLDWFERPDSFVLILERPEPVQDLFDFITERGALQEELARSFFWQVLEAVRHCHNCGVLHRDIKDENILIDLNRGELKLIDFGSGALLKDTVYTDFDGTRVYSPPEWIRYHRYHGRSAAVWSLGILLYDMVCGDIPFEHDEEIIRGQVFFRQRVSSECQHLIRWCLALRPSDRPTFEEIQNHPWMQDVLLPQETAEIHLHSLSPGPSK
Sequence of DYRK1B (Q9Y463 whole entry): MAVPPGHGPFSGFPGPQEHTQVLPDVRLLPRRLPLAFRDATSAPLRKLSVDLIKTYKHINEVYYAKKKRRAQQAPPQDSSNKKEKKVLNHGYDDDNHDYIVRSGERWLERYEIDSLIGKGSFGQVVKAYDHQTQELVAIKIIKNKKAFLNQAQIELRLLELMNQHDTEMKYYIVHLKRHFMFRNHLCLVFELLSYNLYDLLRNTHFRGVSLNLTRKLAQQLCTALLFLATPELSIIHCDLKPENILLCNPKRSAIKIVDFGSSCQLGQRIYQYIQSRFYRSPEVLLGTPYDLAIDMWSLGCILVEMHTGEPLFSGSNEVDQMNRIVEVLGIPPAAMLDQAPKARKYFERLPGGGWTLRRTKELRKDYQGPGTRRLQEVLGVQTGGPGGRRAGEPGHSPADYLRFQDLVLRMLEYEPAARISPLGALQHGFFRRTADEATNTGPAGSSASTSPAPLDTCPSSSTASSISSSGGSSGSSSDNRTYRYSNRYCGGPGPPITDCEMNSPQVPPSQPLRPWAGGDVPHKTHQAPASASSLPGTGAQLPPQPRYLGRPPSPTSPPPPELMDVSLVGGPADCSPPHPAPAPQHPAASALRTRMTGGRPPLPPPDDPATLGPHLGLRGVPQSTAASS
Sequence of CK1α1 (P48729 whole entry): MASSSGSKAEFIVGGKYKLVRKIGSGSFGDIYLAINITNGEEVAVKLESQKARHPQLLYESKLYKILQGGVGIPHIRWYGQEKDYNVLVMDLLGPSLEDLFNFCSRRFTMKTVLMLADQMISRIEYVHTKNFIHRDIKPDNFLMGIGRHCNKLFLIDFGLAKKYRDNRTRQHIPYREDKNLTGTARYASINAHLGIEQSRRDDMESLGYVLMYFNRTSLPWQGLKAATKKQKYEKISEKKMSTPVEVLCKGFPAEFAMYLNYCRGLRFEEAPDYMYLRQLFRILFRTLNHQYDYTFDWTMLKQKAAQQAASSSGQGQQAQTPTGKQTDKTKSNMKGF

| Compound | inhibition at 6.7 µM (DYRK1A [1]) [%] | IC50 (H4 cells [2]) [µM] | IC50 (H4 cells [4]; Homo sapiens) [µM] | IC50 (MAO-A) [µM] | IC50 (DYRK1A [1]; [13]) [µM] | IC50 (DYRK1A [8]) [µM] | IC50 ([9]; MAO-A IC50, MAO-A Glo) [µM] | DYRK1A:MAO-A (IC50 ratio) [9, 14] | IC50 (DYRK1A [10]) [µM] | U87 (cell proliferation) % inhibition at highest dose tested (U87 cells [3]) | inhibition at 66 µM (U87 cells [5]) [%] | other results |
| --- | --- | --- | --- | --- | --- | --- | --- | --- | --- | --- | --- | --- |
| COc1ccc2c(c1)[nH]c1c(C)nccc12 [Harmine, harmine, reference compound] | 74 | 4.9 | 14.9 | 0.003 to 0.107 | – | – | – | – | – | – | – | IC50 (U87 cells [3]): > 25 µM; IC50 (U87 cells [5]): 17.6 µM; Effect on β-gal activity (CLK1 target engagement) (CLK1 [6]): increase in β-gal activity; Tumor inhibition rate ([7]; 15 mg/kg i.p. q.d.): 16.5%; Effect on body weight ([7]; 15 mg/kg i.p. q.d.): did not lead to significant differences in body weight; Tremor activity in treated mice [7]: no tremor activity; Reduction in enzyme activity, CK1α1 (CK1α1): ≥ 70%; Reduction in enzyme activity, PIM1 (PIM1): ≥ 70% |
| Cc1[nH]ccc2c1[nH]c1cc(=O)ccc12 [Harmol, harmol] | 78 | 10.9 | 20 | 0.53 | 0.1 | 0.016 | 0.5 | 0.2 | 0.044 to 0.298 | – | – | IC50 (DYRK1A [1]; DYRK1A IC50, TR-FRET, dose response): 0.07 to 0.1 µM; Fold more potent IC50 with 33P-ATP assay versus TR-FRET (DYRK1A [8]; DYRK1A): 6–7 fold; Fold weaker than harmine for MAO-A [9]: 10 fold; IC50 (U87 cells [3]): 19.1 µM; IC50 (U87 cells [5]): 20.8 µM; Effect on β-gal activity (CLK1 target engagement) (CLK1 [6]): increase in β-gal activity; Tumor inhibition rate ([7]; 15 mg/kg i.p. q.d.): 28.2%; Effect on body weight ([7]; 15 mg/kg i.p. q.d.): did not lead to significant differences in body weight; Tumor inhibition rate ([7]; 60 mg/kg i.p. q.d.): 38.1%; Effect on body weight ([7]; 60 mg/kg i.p. q.d.): did not lead to significant differences in body weight; Survival (Kaplan-Meier) compared to vehicle ([7]; 60 mg/kg i.p. q.d., not statistically significant): trend towards improved survival; Tremor activity in treated mice [7]: no tremor activity; Tumor growth ([7]; high dose (60 mg/kg), day 21, not reaching significance): modest decrease in tumor growth; Number of the 10 kinases displaying 50% or greater inhibition (panel of 10 kinases): 7 |
| COc1ccc2c3c([nH]c2c1)C(C)=NCC3 [Harmaline, harmaline] | 81 | 19.6 | 14.9 | 0.005 to 0.02 | 2.35 | 0.79 | 0.09 | 26.1 | 1.24 to 4.59 | 14% ^c | ~66 | Fold more potent on MAO-A over DYRK1A ([9]; DYRK1A TR-FRET vs MAO-A): ~ 25 fold and ~ 30 fold; IC50 ([9]; MAO-A IC50, MAO-Glo): 0.06 to 0.09 µM |
| COc1ccc2c3c([nH]c2c1)[C@@H](C)NCC3 [Tetrahydroharmine, tetrahydroharmine] | – | – | – | – | – | – | – | 6.2 | 2.99 | No inhibition ^c | – | IC50 (DYRK1A [1]; read-out: DYRK1A IC50, TR-FRET, 10-point 2-fold dose response): 9.41 µM; IC50 (DYRK1A [1]; read-out: DYRK1A IC50, TR-FRET, 10-point 2-fold dose response, listed as tetrahydroharmine): 9.4 µM; IC50 (DYRK1A [8]; read-out: DYRK1A IC50, 33P-ATP, casein substrate, ATP 10 μM, data generated by Reaction Biology): 6.42 µM; IC50 ([9]; read-out: MAO-A IC50, MAO-A Glo): 1.52 µM; H4 (cell proliferation) % inhibition at highest dose tested (H4 cells [2]; PrestoBlue, highest dose tested): 38%^c; IC50 (H4 cells [4]; Hoechst 33342 high content imaging): 26.9 µM; U87 (nuclear count) % inhibition at highest dose tested (U87 cells [5]): ~50% ^c; Reduction in enzyme activity, DYRK2 (DYRK2): minimal effect |
| COC(=O)[C@@]1(O)C[C@H]2O[C@]1(C)n1c3ccccc3c3c4c(c5c6ccccc6n2c5c31)C(=O)NC4 [K252a] | – | – | – | – | – | – | – | – | – | – | – | EC50 (CLK1 [6]; read-out: CLK1 cellular target engagement EC50, positive control inhibitor): 0.0087 µM |
| CN[C@@H]1C[C@H]2O[C@@](C)([C@@H]1OC)n1c3ccccc3c3c4c(c5c6ccccc6n2c5c31)C(=O)NC4 [Staurosporine, reference compound] | – | – | – | – | – | – | – | – | – | – | – | MAO-A IC50, MAO-A Glo [9]: No inhibition |
| c1ccc2c(c1)[nH]c1cnccc12 [Norharmane, norharmane] | – | > 25 | 29.1 | […] | 5.46 | 3.19 | – | – | 8.75 | No inhibition ^c | – | U87 (nuclear count) % inhibition at highest dose tested (U87 cells [5]): No inhibition ^c |
| Cc1nccc2c1[nH]c1ccccc12 [Harmane, harmane] | 71 | > 25 | 17.1 | 0.029 to 0.337 | 2.68 | 1 | 0.64 | 4.2 | 1.82 | 30% ^c | ~50 | – |
| CC1=NCCc2c1[nH]c1cc(O)ccc21 [Harmalol, harmalol] | 79 | 23.7 | 25.2 | 0.153 | 0.63 | 0.18 | 0.66 | – | – | 37% ^c | < 50 | Fold lower activity against DYRK1A than harmol (DYRK1A [1]): ~ 6 fold; DYRK1A:MAO-A (IC50 ratio) [9]: 1.0; Reduction in enzyme activity, CLK1 (CLK1 [11]): ~100%; Reduction in enzyme activity, DYRK1B (DYRK1B): ~100%; Reduction in enzyme activity, DYRK1A (panel) (DYRK1A [12]): ~100% |
